Source: ChEMBL document CHEMBL2401637, “The identification of novel p38α isoform selective kinase inhibitors having an unprecedented p38α binding mode” (Bioorg Med Chem Lett, 2013)

Test: Aqueous solubility of the compound at pH 6.5
Type: physicochemical

solubility [µg/mL] | Compound
< 1 | Cc1ccc(C(=O)NC2CC2)cc1NC(=O)c1ccc(-c2ccc(Cl)cc2)s1
< 1 | Cc1ccc(C(=O)NC2CC2)cc1NC(=O)c1ccc(-c2ccccc2Cl)s1
< 1 | Cc1ccc(C(=O)NC2CC2)cc1NC(=O)c1ccc(-c2cccc(Cl)c2)s1
